Measured values published in US9139812B2, “CD49F promoting proliferation, multipotency and reprogramming of adult stem cells through PI3K/AKT/GSK3 pathway” (KANG STEM HOLDINGS CO., LTD, priority 2010, dated 2015).
Entries after “also recorded” stand apart in the source; their conditions may differ.

Columns and labels:
Type in all cases: cell-based, human
PI3K/AKT/GSK3β [1] = assay: Western blot for PI3K, AKT, GSK3β phosphorylation in MSC spheres; details: spheres treated with 0.2 μM BIO, compared to monolayer-incubated adult stem cells
Procedure: FIG. 6(A) is the result of Western blot analysis conducted after 7 days from sphere culture, wherein MSC spheres were collected by means of 40 μm strainer and then washed two times, and the phosphorylation levels of PI3K and its sequential downstream effectors, AKT and GSK3β were analyzed in monolayer cells, spheres, spheres treated with 0.2 μM BIO, and spheres treated with 30 μM LY294002.
(§1) Western blot analysis for PI3K, AKT, and GSK3β was conducted according to the reference (Park et al., 2009). Adult stem cells incubated as monolayer or spheres were crushed in 50 mM Tris-HCl buffer comprising 1% Triton X-100 to which 1 mM phenylmethylsulfonyl fluoride, 1 mM aprotinin, 1 mM leupeptin, 1 mM antipain, and 0.1 mM sodium orthovanadate were added, 137 mM NaCl, 2 mM EDTA, and 0.1% SDS. The content of protein was determined using DC assay kit (Bio-Rad, USA), and then SDS-PAGE was conducted by loading a given amount of protein on 0-15% polyacrylamide gel. Then protein was transferred to nitrocellulose membrane at 50 V, 350 mA for 5 hours. All of antibodies were used according to the manufacturer's instructions, and the protein bands were identified using enhanced chemiluminescence detection kit (Amersham Pharmacia Biotech, Buckinghamshire, UK).

PI3K/AKT/GSK3β [2] = assay: Western blot for PI3K/AKT/GSK3β in CD49f-overexpressing adult stem cells
Procedure: (§2) Cells were seeded onto 24-well plate, and then the optical density was measured after 24 hour and 48 hours (*, P<0.05; **, P<0.01). FIG. 9(B) is the result of measuring a size of spheres in the presence or absence of CD49f, LY294002, BIO (*, P<0.05; **, P<0.01). FIG. 9(C) is the result of Western blot analysis for PI3K/AKT/GSK3β. CD49f expression vector was transduced into cells, which were than treated with LY294002 and BIO. Using phospho-specific antibodies for respective proteins the phosphorylation level of protein kinases was identified via Western blotting. 20 μg of protein lysate was loaded onto each well.
as §1, with “All of antibodies were used according to the manufacturer's instructions, and the protein bands were identified using enhanced chemiluminescence detection kit (Amersham Pharmacia Biotech, Buckinghamshire, UK).” left out

[3] = test system: adult stem cells overexpressing CD49f; assay: Sphere formation assay in CD49f-overexpressing adult stem cells
Procedure: as §2
(§3) In order to further confirm whether CD49f genetic expression is dependent on the activation of PI3K/AKT/GSK3 pathway, adult stem cells overexpressing CD49f were treated with LY294002 or BIO for 24 hours and 48 hours.

adult stem cell spheres = assay: Formation of adult stem cell (MSC) spheres with GSK3 or PI3K inhibitor; details: after 7 days; BIO 0.2 μM to 0.5 μM; LY294002 30 μM to 50 μM
Procedure: To form adult stem cell spheres with preventing the adhesion of cells to the bottom of plastic container, 100 mm culture plate coated with 1% agarose (Nunc, Rochester, N.Y.) was used, and 1.5×10^5 adult stem cells were incubated in the growth medium as described in Preparation 1. A total of 15,000 cells were seeded per 1 ml of the medium, and adult stem cell spheres were incubated for one week. To prevent cell loss the culture solution was partially replaced only two times per week. After 7 days, adult stem cell spheres were collected by means of 40 μm pore cell strainer. Adult stem cell spheres as collected were washed with PBS, and gently centrifuged (800 rpm/5 min) for supplementary experiments.
To identify the influence of GSK3 and PI3K signal transduction on sphere formation the inhibitory experiment was practiced. After treatment with BIO (Sigma-Aldrich) as GSK3 inhibitor at the concentration of 0 μM, 0.2 μM, or 0.5 μM, or with […] (Calbiochem, La Jolla, Calif.) as PI3K inhibitor at the concentration of 0 μM, 10 μM, 30 μM, or 50 μM the formation of adult stem cell spheres was observed. The number of adult stem cell spheres was counted after 7 days from culture.

adult stem cells = assay: Survival of adult stem cells treated with BIO; details: BIO treatment
[4] = test system: CD49f-overexpressed cells; assay: Adipogenic differentiation of CD49f-overexpressed adult stem cells (Oil Red O, RT-PCR)
Procedure: (§4) Osteogenesis was confirmed through Alizarin Red S staining.
The cell culture of monolayer-incubated cells (Comparative Example 1) and sphere-derived cells (Example 1) was conducted using DMEM containing 5% FBS, 1 μM dexamethasone, 10 μM insulin, 200 μM indomethacin, and 0.5 mM isobutylmethylxanthine to induce differentiation into adipose tissue.
To determine the differentiation degree from fat accumulation present in cells, incubated cells were stained with Oil Red 0, and then Oil Red ° penetrated into cells was extracted with 100% isopropyl alcohol, and quantified with ELISA plate reader (EL800, Bio-Tek Instruments, USA) at OD 500. In addition, using RT-PCR the expression of C/EBP β, AP2, and PPARγ as adipose tissue-specific genes was examined.
(§5) Subsequently, whether in differentiation of adult stem cells into osteocytes and adipocytes CD49f expression can be regulated by PI3K/AKT/GSK3 pathway was identified. CD49f-overexpressed adult stem cells were treated with LY294002 and BIO, and then incubated in osteocyte and adipocyte media, respectively, to induce differentiation into osteogenic and adipogenic lineages.

CD49f-overexpressed MSCs = assay: Osteogenic differentiation of CD49f-overexpressed adult stem cells (Alizarin Red S, RT-PCR)
Procedure: as §4
The monolayer-incubated cells (Comparative Example 1) and sphere-derived cells (Example 1) were incubated in DMEM containing 5% FBS, 50 μM L-ascorbate-2-phosphate, 0.1 μM dexamethasone and […] glycerolphosphate to induce differentiation into bone tissue. The cells were stained with Alizarin Red dye specific to calcium, and then the dye was extracted by treating with 100 mM cetylpyridinium chloride (Sigma-Aldrich) for one hour and used for quantitative analysis. The emission of solubilized Alizarin Red S was measured by means of spectrophotometer at 570 nm.
as §5

[5] = test system: adult stem cells overexpressing CD49f; assay: MTT cell proliferation assay in CD49f-overexpressing adult stem cells; details: 24 and 48 hours
Procedure: as §3
The proliferation potential of cells was measured by MTT assay analysis based on the ability of living cells to convert tetrazolium salt into purple formazan. Adult stem cells were transduced with either control vector or CD49f expression vector. After 24 hours from transduction, cells were seeded onto 24-well plate, and incubated in medium comprising LY294002 and BIO. After culture for 24 hours and 48 hours, […] of MTT stock solution (5 mg/ml, Sigma) was added to each well, and then further incubated at 37° C. for 4 hours. After removing the supernatant, […] of DMSO was added to each well so that insoluble purple formazan crystals can be dissolved […]. Then, cells were transferred to 96-well microplate and then the absorbance was measured using EL800 microplate reader (BIO-TEK Instruments, Winooski, Vt., U.S.A.) at wavelength of 540 nm. All of measurements were repeated three times.

O=C1Nc2cc(Br)ccc2/C1=C1/Nc2ccccc2/C1=N\O [BIO]
phospho-PI3K and phospho-AKT (PI3K/AKT/GSK3β [1]): increased
AKT phosphorylation (PI3K/AKT/GSK3β [2]): induced phosphorylation
GSK3 phosphorylation (PI3K/AKT/GSK3β [2]): induced phosphorylation
number of adult stem cell spheres / sphere formation [3]: increased
number of adult stem cell spheres formed (adult stem cell spheres): significantly increased
size of adult stem cell spheres (adult stem cell spheres): significantly increased
survival potential of adult stem cells (adult stem cells): does not adversely affect
mRNA levels of adipocyte transcription factors (C/EBP β, aP2, PPARγ, LEPTIN) ([4]; RT-PCR): inhibited; also recorded: significantly reduced
lipid accumulation (Oil Red O staining) ([4]; compared to untreated control group): inhibited
propensity of adult stem cells to differentiate into osteocytes (CD49f-overexpressed MSCs; BIO treatment): increases
mineral accumulation (Alizarin Red S staining) (CD49f-overexpressed MSCs; CD49f-overexpressed MSCs, osteocyte induction): further increased
mRNA levels of osteocyte-specific markers (BGLAP, VDR, MSX2, OSTEOCALCIN, RUNX2) (CD49f-overexpressed MSCs; RT-PCR, CD49f-overexpressed adult stem cells): further increased; also recorded: upregulated
growth rate / cell proliferation (MTT) [5]: higher
